Assay: Human HepG2 cell viability assay in 384 well format
Assay type: toxicity, cell-based
Parameters: dose 125 nL, time 70.5 hour; concentration not given beside the values
Conditions: HepG2 cells, read-out: Inhibition

Row | Structure (SMILES) | cytotoxicity at 70.5 h
1 | Cn1ccnc1CN1CCN2C[C@H](Oc3ccccc3)C[C@H]2C1 | 11.2%
2 | CSCCC(CO)NC(=O)c1sc(-c2ccccc2Cl)nc1C (stereo not given) | -23.9%
3 | Cc1nc(NC(=O)OC(C)(C)C)sc1C(=O)O | 21.2%
4 | CC(=O)Nc1nc(C(=O)N2CCCC(n3cncn3)C2)cs1 (stereo not given) | -11.2%
5 | O=C1NCC2(CCCN(C(=O)c3ccc4c(c3)OCCO4)CC2)O1 (stereo not given) | -2.63%
6 | O=C(c1ccccc1F)N1CC(c2nc(C3CC3)no2)C1 | -11.5%
7 | O=C1CC[C@H]2CN(c3ncc(F)cn3)CC[C@H]2N1CCc1ccccc1 | -6.02%
8 | CC(C)c1nc(C2CCCN(c3nccc(C(F)(F)F)n3)C2)no1 (stereo not given) | -2.52%
9 | CN1CCCC(Cc2ccnc3ccncc23)CC1 (stereo not given) | 34.2%
10 | CSCC(CCO)NC(=O)Nc1cc(Br)ccc1C (stereo not given) | -3.57%
11 | Cc1csc(CCNC(=O)c2cc3c(nc2O)CCC(C)C3)n1 (stereo not given) | -8.45%
12 | N#Cc1ccc(NCCC2CCN(CC(F)(F)F)CC2)nc1 | 2.24%
13 | CC(C)(C)c1noc(CCCC(=O)N2CCCC(c3ccn[nH]3)C2)n1 (stereo not given) | -2.4%
14 | Cc1n[nH]c2nc(-c3cccc(Cl)c3)cc(C(=O)O)c12 | 9.1%
15 | Cc1nc(O)cc(C2(C)CCCNC2)n1 (stereo not given) | -3.13%
16 | CCCOc1cc(CNC(=O)Nc2cccnc2N2CCCC2)ccn1 | -24.2%
17 | O=S(=O)(CCN1CCCCC1Cn1cccn1)c1ccccc1 (stereo not given) | -28.3%
18 | Cc1ccc(N2CCCC(NCc3nc(C)c(C)o3)C2)nn1 (stereo not given) | -14.3%
19 | CC(Cn1cccn1)NC(=O)NCCc1ccsc1 (stereo not given) | 15.4%
20 | CCN1C(=O)CCCC12CCCN(C(=O)c1occc1C)C2 (stereo not given) | -10.4%
21 | Cc1ccc(N2CCCC(NCC(=O)Nc3cc(C)no3)C2)nn1 (stereo not given) | 25.6%
22 | CNc1nc(C(=O)NCc2cccnc2N(C)C)cs1 | 1.65%
23 | Cc1nc(C)c(C(=O)N2C[C@@H](C(=O)O)[C@H](C3CC3)C2)s1 | -1.71%

Row | Structure (SMILES) | cytotoxicity at 70.5 h
24 | Cc1cc2c(=O)n3c(nc2s1)CCN(Cc1ccncc1)CC3 | -13.5%
25 | CC(C)(O)CCc1cccc(C(=O)N[C@H](C(N)=O)c2ccccc2)c1 | -11%
26 | COc1ccccc1Oc1ncccc1CNC(=O)C(C)CN (stereo not given) | -9.25%
27 | C[C@@H]1CN(C(=O)c2cc(Cn3cnc4ccccc43)on2)C[C@H](C)O1 | -5.79%
28 | COc1ccc(CN2CCC(C(N)=O)CC2)cc1SC(F)(F)F | 5.97%
29 | Cc1cnn(CCC(=O)NCc2ccc(N(C)C)c(C)c2)c1 | -5.29%
30 | OCC1CCN(Cc2cc3c(cc2Br)OCCO3)CC1 | 17.4%
31 | O=C(c1cccc(F)c1)N1CCC2(CC1)CC(N1CCOCC1)C2 | -14.8%
32 | CN(C)c1cc2c(nn1)CCN(C(=O)c1cc3ccccc3[nH]c1=O)C2 | -15.9%
33 | CCN1CCN(CCNc2nc3ccc(C)cc3c(=O)n2C)CC1 | 11.8%
34 | COC(=O)c1ncccc1N1CCC(C(O)c2ccccc2)CC1 (stereo not given) | -6.81%
35 | CCc1cc(C(=O)N2CCc3c(ncn3CCc3ccccc3)C2)[nH]n1 | 5.19%
36 | Cc1nn(-c2ccccc2)c2c1c(C(F)F)cc(=O)n2CC(=O)O | -9.31%
37 | CCNS(=O)(=O)C1CCN(C(=O)c2ccc(F)cc2)C1 (stereo not given) | 1.22%
38 | CO[C@H]1CCN(S(=O)(=O)c2cccs2)[C@H]1Cc1ccncc1 | -6.14%
39 | CC(NC(=O)C1=NN(C)C(=O)CC1)c1cccc(Cl)c1 (stereo not given) | -85.8%
40 | CCCS(=O)(=O)N1CCC(NC(=O)c2cc(CC)c(C)s2)CC1 | -0.636%
41 | Cc1ccnc(NCCNC(=O)C2CC3(CCNCC3)CN2C)c1 (stereo not given) | -3.92%
42 | CC(C)NC(=O)c1nnn(-c2cccc(C(F)(F)F)c2)c1C1CC1 | 10.4%
43 | COC(=O)N1CCN(Cc2csc(-c3ncccn3)n2)CC1 | -5.37%
44 | O=C(Cc1ccsc1)N1CCCC2(COCCN(CC3CC3)C2)C1 (stereo not given) | 1.23%
45 | Cc1cccc(N2CCC3(CCCC(=O)N3)CC2)n1 | -0.82%
46 | O=C(CCc1nccs1)N1CCCC(n2cccn2)C1 (stereo not given) | 1.23%

Row | Structure (SMILES) | cytotoxicity at 70.5 h
47 | Clc1cccc(C2CCN(c3ncnc4c3CCNC4)C2)c1 (stereo not given) | -1.22%
48 | COc1cc(C)c(C(C)NC(=O)Nc2nnc(C)s2)cc1OC (stereo not given) | -11.5%
49 | CCN(CC)C(CNS(=O)(=O)c1ccc(C(N)=O)cc1)c1ccco1 (stereo not given) | -0.105%
50 | Cc1cnn(CC(=O)N2CCC3(CCC(=O)N(CCCO)C3)CC2)c1 | 0.675%
51 | Nc1nc2c(c(NCc3cnc4c(c3)CCC4)n1)CCNC2 | -10.4%
52 | COCC(=O)N1CCCCC1c1nc(C)c2c(n1)N(CC1CC1)C(=O)C2 (stereo not given) | -2.8%
53 | CC(C)N1CCOCC2(CN(Cc3cccs3)CCO2)C1 (stereo not given) | -0.496%
54 | CNC(=O)C(C)(C)N1CCC[C@H]1C(=O)NC1CCCC1 | -0.301%
55 | CC(Sc1nnc(C2CC2)n1CC(N)=O)c1ccc(Cl)cc1 (stereo not given) | -8.5%
56 | COc1ncc(CN2CC[C@@](C)(O)[C@H](Oc3cccc(F)c3)C2)cn1 | 5.46%
57 | CCCOC1CCCN(C(=O)c2csc(S(N)(=O)=O)c2)C1 (stereo not given) | 9.57%
58 | CCn1c(C)nnc1CN(C)C1CCN(CCCSC)C1 (stereo not given) | 26.5%
59 | CCc1noc(CN(CC)C(=O)CC2C(=O)NCCN2CC(C)(C)C)n1 (stereo not given) | 0.786%
60 | Cc1oc(C(=O)O)cc1S(=O)(=O)Nc1c(F)cccc1-n1cccn1 | -0.99%
61 | Cc1ncsc1C(=O)N(C)Cc1ccsc1 | -12.2%
62 | Cc1cnn(CCNCC(O)c2ccc(C(F)(F)F)cc2)c1 (stereo not given) | -17.1%
63 | O=C1NCCCCC1Sc1ccccc1F (stereo not given) | -11.2%
64 | CC(=O)Nc1cc(C(=O)Nc2cc(CC(C)(C)C)nn2C)ccc1F | 14.4%
65 | c1ccc2oc(CN3CCCCC3Cn3cncn3)nc2c1 (stereo not given) | -4.46%
66 | CN(C)C(=O)C1OC2(CCN(C(=O)c3ccoc3)CC2)c2ccccc21 (stereo not given) | -14.7%
67 | Cn1c(=O)ccn(CC(=O)N2CCCC(n3cccn3)C2)c1=O (stereo not given) | -9.63%
68 | COc1cc(N2CCC3(CC2)CCN(c2cccnc2)C3=O)ncn1 | -9.9%
69 | CC1CN(CC(=O)Nc2cccnc2)CCN1c1nccs1 (stereo not given) | -12.4%

Row | Structure (SMILES) | cytotoxicity at 70.5 h
70 | CO[C@H]1CN(C(=O)c2cccnc2)[C@@H]2CCCO[C@H]12 | -11.9%
71 | Cc1noc2ncc(C(=O)N(CC3CCOC3)C3CC3)cc12 (stereo not given) | -6.78%
72 | CCOc1ccc(NC(C)=O)cc1S(=O)(=O)Nc1ccon1 | 4.6%
73 | CCN1CCc2c(sc3c2C(=O)NC(/C=C/c2ccco2)N3)C1 (stereo not given) | 43.7%
74 | c1cc(-c2noc(CN3CCn4c(nnc4C4CC4)C3)n2)cs1 | -19.2%
75 | CCc1cnc(CN(C)C2CCN(CCS(C)(=O)=O)C2)o1 (stereo not given) | -6.45%
76 | CS(=O)(=O)N1CCCC12CCCN(C(=O)c1ccc3c(c1)OCO3)C2 (stereo not given) | -7.38%
77 | CCc1nccn1C1CCCN(C(=O)Cc2cn3ccccc3n2)C1 (stereo not given) | -3.88%
78 | COc1ccc(C2=CCN(C(=O)CN(C)S(C)(=O)=O)CC2)cc1 | -10.2%
79 | CC(=O)c1ccc(OCC(=O)NS(=O)(=O)c2ccc(Cl)s2)cc1 | -10.1%
80 | CCOCC(=O)N1CCC(c2nc(-c3cccnn3)no2)CC1 | -11.6%
81 | CCOCC(O)CN1CCN(C(=O)c2ccc(OC)cc2F)CC1 (stereo not given) | -21.8%
82 | CCN1CCN2CCCN(S(=O)(=O)c3ccc(C)cc3C)C2C1=O (stereo not given) | -4.62%
83 | CC(C#N)(NC(=O)Cn1cc(I)cn1)C1CC1 (stereo not given) | 6.23%
84 | CCn1nccc1CN(C)C(=O)Cn1nc(C)c(C)c1C | -4.43%
85 | CO[C@H]1CCN(c2ncc(F)cn2)[C@@H]2CN(Cc3ccco3)C[C@H]12 | -6.95%
86 | CC(=O)N1CC2(CCN(C(=O)c3ccoc3)C2)C1 | -2.66%
87 | O=C1C(Nc2nccn3cnnc23)CCN1c1cccc(Cl)c1 (stereo not given) | -11.2%
88 | CC1N(C)C(=O)COC12CCN(Cc1nccs1)CC2 (stereo not given) | -9.04%
89 | Cc1ccc(CCC(C)NC2CCN(C(N)=O)CC2)cc1 (stereo not given) | -1.06%
90 | CCn1cc(NC(=O)C2CCN(CC(=O)N3CCOCC3)CC2)cn1 | -19%
91 | Cc1cccc(CNC(Cc2ccsc2)c2nccs2)n1 (stereo not given) | 0.0464%
92 | COC1(CNC(=O)CCCc2ccccc2)CCSC1 (stereo not given) | -0.238%

Row | Structure (SMILES) | cytotoxicity at 70.5 h
93 | Cc1nc(C)n(CC2CN(CC(=O)Nc3ccncc3)CCO2)n1 (stereo not given) | -5.56%
94 | CN1CCCC1c1ccc(N2CCOCC2)cn1 (stereo not given) | -16.8%
95 | CC[C@@H]1N(Cc2ccc(OC)cc2)CCC[C@]12CCC(=O)N2CCOC | 16.8%
96 | CCN1CCCC(CN(C)c2nccc(-c3ccc(C)nc3C)n2)C1 (stereo not given) | -1.39%
97 | CN1CCN(c2ccc(Br)cc2NC(=O)c2ccco2)CC1 | 2.12%
98 | Cc1noc(C)c1CCCNc1cnccn1 | -16.9%
99 | CN1CCC/C1=N\S(=O)(=O)c1ccc(NC(=O)c2ccc(F)cc2)cc1 | -4.6%
100 | CCNC(=O)[C@@H]1C[C@H](N)CN1c1cc(C(F)(F)F)nc(N(C)C)n1 | 37.1%
101 | O=C(CO)N1CCC(CCc2ccnc(Nc3cnccn3)c2)CC1 | -2.09%
102 | CCc1nc2c(c(NCc3nc(-c4cccnc4)no3)n1)CCNCC2 | -2.89%
103 | N#Cc1ccc(Cl)cc1NCC1CC1 | -5.4%
104 | CN(Cc1cccnc1)Cc1cn2c(n1)CN(C1CCOC1)CC2 (stereo not given) | -6.14%
105 | CC(C)c1nn(C)c(N(C)C)c1CNC(C)c1ccc2c(c1)OCO2 (stereo not given) | 20%
106 | CC(=O)N1Cc2ccccc2CC1C(=O)Nc1ccc(N(C)C)cn1 (stereo not given) | -24.9%
107 | COc1cccc(S(=O)(=O)CCNC2CCc3ncnn3C2)c1 (stereo not given) | -4.52%
108 | Cc1cccc(CN2CC[C@@H]3[C@@H]2CCN3C(=O)c2cc(C)oc2C)n1 | 13.1%
109 | CCOc1ccnc(N2CCN(C(=O)c3cc(Cl)c[nH]3)CC2)n1 | 25.8%
110 | CC(C)n1cnnc1C1CCCN(C(=O)COCc2ccccc2)C1 (stereo not given) | -5.17%
111 | O=C1NCCCCC1Sc1nnc(-c2cccnc2)n1C1CC1 (stereo not given) | -5.84%
112 | COc1c(C)cnc(CSc2nnc(NC3CC3)s2)c1C | -1.65%
113 | Cc1cc(C)nc(NC2CCc3nc(C)nn3C2)n1 (stereo not given) | -5.94%
114 | Cc1cc(C)c(CNc2ncnc3ccccc23)c(=O)[nH]1 | -2.78%
115 | c1cncc(COCC2CNCc3nccn3C2)c1 (stereo not given) | 3.07%
